# From patent US20180371076A1, “MATERNAL TH17 CELLS AND PSYCHIATRIC DISORDERS” (New York University, priority 2017, published 2018)
# Entries after “also recorded” stand apart in the source; their conditions may differ.
# How the values were obtained:
# IL-17a mRNA = assay: Real-time PCR of IL-17a mRNA (placenta/decidua mononuclear cells, fetal brain); format: cell-based, mouse
# [1] = test system: cortex of the fetal brain; assay: Cortical development: SATB2/TBR1/CTIP2 immunohistochemistry of fetal and adult offspring brain; format: in vivo, mouse; details: offspring of MIA vs PBS-treated mothers
# IL-17a = IL-17a secretion by ex vivo cultured mononuclear cells (PMA/ionomycin); format: cell-based, mouse; details: vs PBS
# Protocol: (§1) Cell preparation, Flow cytometry, ELISA. Embryos at each implantation site were dissected in ice-cold HBSS containing Ca^2+ and Mg^2+. Myometrium was first peeled off of the decidua and embryos were discarded. Dissected decidual and placental tissues were then minced and enzymatically dissociated in HBSS containing 0.28 Wunsch units (WU)/mL Liberase (Roche) and 30 μg/ml DNase I (Roche) for 30 min at 37° C. with intermittent mixing. Digested tissues were washed in PBS containing 5 mM EDTA and 5% fetal bovine serum and then incubated again in the same buffer for 15 min at 37° C. prior to filtration through a cell strainer. After separation on a discontinuous 40% & 80% Percoll gradient, the mononuclear cell fraction was treated with ACK lysis buffer (Lonza). Mononuclear cells (1×10^6 cells/mL) were stimulated with phorbol 12-myristate 13-acetate (PMA, 50 ng/mL; Sigma), ionomycin (500 ng/mL; Sigma) in T cell media: RPMI 1640 (Invitrogen) supplemented with 10% (v/v) heat-inactivated FBS (Hyclone), 50 U penicillin-streptomycin (Invitrogen), 2 mM glutamine, and 50 μM β-mercaptoethanol. Cell culture supernatant was used for ELISA analyses. For flow cytometry, cells were incubated for 5 h with PMA, ionomycin and GolgiStop (BD). […] For ELISA with sera and placenta/decidua extract, IL-6 (Ebioscience), IL-17a (Biolgened), and IL-10 (BD) were measured according to the manufacturer's protocol. […]
# IL-6 = IL-6 ELISA of maternal serum; format: in vivo, mouse; details: poly(I:C) 20 mg/kg i.p. at E12.5, 3 h, vs PBS
# Protocol: as §1
# Th17 cells = assay: Flow cytometry of placenta/decidua CD4+ T cells: Th17; format: in vivo, mouse; details: poly(I:C) vs PBS treatment, pregnant dams
# Protocol: (§2) Cell preparation, Flow cytometry, ELISA Embryos at each implantation site were dissected in ice-cold HBSS containing Ca2+ and Mg2+ (Gibco). Myometrium was first peeled off of the decidua and embryos were discarded. Dissected decidual and placental tissues were then minced and enzymatically dissociated in HBSS containing 0.28 Wunsch units (WU)/mL Liberase (Roche) and 30 μg/mL DNase I (Roche) for 30 min at 37° C. with intermittent mixing. Digested tissues were washed in PBS containing 5 mM EDTA and 5% fetal bovine serum and then incubated again in the same buffer for 15 min at 37° C. prior to filtration through a cell strainer. […] Intracellular cytokine staining was performed according to the manufacturer's protocol (Cytofix/Cytoperm buffer set from BD with Pacific Blue-conjugated CD4, FITC or PerCP-Cy5.5-conjugated CD8, APC4 Cy7-conjugated TCR-β, PE-Cy7-conjugated anti-IL-17a, PE-conjugated anti-IFN-γ, PECy7-conjugated anti-CD25 and PE-conjugated Foxp3 (eBioscience). LSR II (BD Biosciences) and FlowJo software (Tree Star) were used for flow cytometry and analysis. Dead cells were excluded using the Live/Dead fixable aqua dead cell stain kit (Invitrogen). For ELISA with sera and placenta/decidua extract, IL-6 (Ebioscience), IL-17a, TNF-α, IL-1β, IFN-β (Biolgened), and IL-10 (BD) were measured according to the manufacturer's protocol.
# IL-1β = IL-1β ELISA of maternal serum; format: in vivo, mouse; details: poly(I:C) at E12.5, 3 h, vs PBS
# Protocol: as §2
# IFN-β = IFN-β ELISA of maternal serum; format: in vivo, mouse; details: poly(I:C) at E12.5, 3 h, vs PBS
# Protocol: as §2
substance,measurement,setting,value
poly(I:C),IL-17a mRNA in placenta- and decidua-associated mononuclear cells,"IL-17a mRNA; isolated at E14.5, cultured 24 h",strongly up-regulated
same,IL-17a mRNA in fetal brain at E14.5,IL-17a mRNA; regardless of poly(I:C) injection,not detected
same,cortical organization by Golgi staining,[1],disorganized cortical regions
same,IL-17a secretion by placenta/decidua-associated mononuclear cells,"IL-17a; cells from poly(I:C)-treated dams, ex vivo PMA and ionomycin",increased IL-17a secretion; also recorded: enhanced secretion of IL-17a
same,IL-17a secretion by small intestine mononuclear cells,IL-17a; cells from poly(I:C)-treated pregnant dams,did not exhibit higher levels of IL-17a secretion; also recorded: did not secrete more IL-17a
same,serum IL-6,IL-6,strong induction
same,placenta/decidua-associated Th17 cells,Th17 cells,increased
same,serum IL-1β,IL-1β,strong induction
same,serum IFN-β,IFN-β,strong induction
